Test results taken from patent US20120263794A1, “TREATMENT OF EYE DISEASES USING ENCAPSULATED CELLS ENCODING AND SECRETING A NEUROPROTECTIVE FACTOR AND/OR AN ANTI-ANGIOGENIC FACTOR” (BIOCOMPATIBLE UK LTD., priority 2009, published 2012).
Ends that are not written are not given here.

Columns and labels:
DPP-IV = biological target: T1, DPP-IV (Homo sapiens, UniProt P27487); experiment: In vitro human plasma stability of GLP-1CM peptides; format: in vitro ADME; settings: 20 ng/ml, 37° C., 5% CO2, 3 hours, in contrast to native GLP-1(7-37)
T1 construct: incubated at concentrations of 20 ng/ml with human plasma; from tissue; host or cells: human plasma
T1 sequence (P27487 whole entry): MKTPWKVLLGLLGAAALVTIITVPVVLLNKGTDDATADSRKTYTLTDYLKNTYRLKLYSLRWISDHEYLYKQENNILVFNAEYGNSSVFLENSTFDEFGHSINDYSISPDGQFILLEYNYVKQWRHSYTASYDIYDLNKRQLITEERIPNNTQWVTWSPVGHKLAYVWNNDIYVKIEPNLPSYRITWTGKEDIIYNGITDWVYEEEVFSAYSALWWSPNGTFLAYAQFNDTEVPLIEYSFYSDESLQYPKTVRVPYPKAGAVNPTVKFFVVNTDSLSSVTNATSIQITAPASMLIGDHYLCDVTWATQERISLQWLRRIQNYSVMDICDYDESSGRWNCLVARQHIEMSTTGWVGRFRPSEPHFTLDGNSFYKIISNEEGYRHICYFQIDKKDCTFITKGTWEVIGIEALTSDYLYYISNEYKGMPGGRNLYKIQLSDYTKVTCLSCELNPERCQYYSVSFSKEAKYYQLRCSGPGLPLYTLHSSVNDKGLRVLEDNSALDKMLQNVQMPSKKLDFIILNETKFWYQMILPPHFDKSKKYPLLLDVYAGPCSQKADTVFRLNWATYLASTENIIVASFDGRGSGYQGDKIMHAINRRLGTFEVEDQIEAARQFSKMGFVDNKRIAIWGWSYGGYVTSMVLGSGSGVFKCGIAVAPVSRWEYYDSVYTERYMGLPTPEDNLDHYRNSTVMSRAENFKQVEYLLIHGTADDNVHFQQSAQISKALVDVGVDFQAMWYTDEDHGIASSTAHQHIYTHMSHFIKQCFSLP
Experimental: Synthetic GLP-1 peptides (SEQ ID NO:1syn, SEQ ID SEQ ID NO:7rec, SEQ ID NO:8syn) were incubated at concentrations of 20 ng/ml with human plasma at 37° C. and 5% CO2 for 3 hours. Dipeptidylpeptidase activity of the plasma was inhibited by a DPP-IV inhibitor (#DPP4, Biotrend).

Rin-5F cells = experiment: Anti-apoptotic efficacy, cycloheximid-induced apoptosis, AlamarBlue; format: cell-based, rat; settings: 24 hours
Experimental: Apoptosis is induced in RIN-5F cells by addition of the protein biosynthesis inhibitor cycloheximid (CHX) in a final of 10 μg/ml and 100 μg/ml respectively.
40.000 Rin-5F cells were seeded per 96 well and cultivated for 2 days in RPMI supplemented with 1% L-Glutamin and 10% fetal calf serum. […] After 24 hours cell viability is quantified using AlamarBlue.

Row | Molecule | stability in human plasma (active GLP, ELISA) (DPP-IV) | cell viability (Rin-5F cells; different concentrations, CHX 10 μg/ml and 100 μg/ml) | anti-apoptotic effect (Rin-5F cells; in the presence of 1 nM, cycloheximid, serumfree, p<0.01)
1 | GLP-1 (7-37)-IP2-RR-GLP1(7-37) [SEQ ID NO:6] | significantly stabilized | – | –
2 | HAEGTFTSDVSSYLEGQAAKEFIAWLVKGRGRRDFPEEVAIAEELG [SEQ ID NO:8, GLP-1 (7-37)-IP2] | significantly stabilized | – | –
3 | CM1: C-terminally elongated dimeric GLP-1 fusion peptide GLP-1 (7-37)-IP2-GLP-1 (7-37) produced by construct #217 | – | significant (p<0.01) increase of cell viability | significant anti-apoptotic effect
4 | GLP-1 (7-37)-IP2-RR-GLP2 (protein, Description of sequence SEQ ID No 7 (ID7rec, CM2) corresponds to GLP-1(7-37)-IP2-RR-GLP2, 83 aa, 9,4 kD, 83 aa, recombinant) HAEGTFTSDVSSYLEGQAAKEFIAWLVKGRGRRDFPEEVAIAEELGRRHADGSFSDEMSTILDNLATRDFINWLIQTKITDKK | significantly stabilized | – | –
